Results from patent US20230211052A1, “COMPOUNDED ACTIVE PHARMACEUTICAL AGENTS IN THERMOPLASTIC POLYMER COMPOSITIONS AND METHODS OF MANUFACTURE” (priority 2021, published 2023).
Structures can show the parent of a compound that is named as a salt.

test: Thermal stability assessment, oven then HPLC for degradants; format: physicochemical; details: oven at 210° C. for 10 mins, compared with unheated sample
Method: The antimicrobial agents were placed into an oven set at 210° C. for 10 mins (to mimic condition in which the antimicrobial agent would be exposed to heat during the compounding and extrusion processes). Another set of the same antimicrobial agents was not exposed to any heat. The unheated and heated samples were then examined through HPLC method for presence of degradants (extra peaks). Results of CHA and CHD are in FIGS. 8, 9, 10, and 11. […] Similar to CHD, ALX-D was also found stable at 210° C. for 10 mins and was found suitable for including in the device through compounding process.

**Q.** With `CCCCC(CC)CNC(=N)NC(=N)NCCCCCCNC(=N)NC(=N)NCC(CC)CCCC` (stereo not drawn) [ALX-D, Alexidine Dihydrochloride] as the compound, how does the “thermal stability, presence of degradants (extra peaks) by HPLC” value (shortened to “thermal stability, presence”) read?
**A.** stable

**Q.** Which “thermal stability, presence” value does the source give for `CC(=O)O.CC(=O)O.NC(=N\CCCCCC/N=C(N)/N=C(\N)Nc1ccc(Cl)cc1)/N=C(\N)Nc1ccc(Cl)cc1` [CHA, Chlorhexidine Diacetate] here?
**A.** several extra peaks from degradants

**Q.** Which “thermal stability, presence” value does the source give for `[H]/N=C(\N/C(=N/[H])NCCCCCCNC(=N)NC(=N)Nc1ccc(Cl)cc1)Nc1ccc(Cl)cc1` [CHD, Chlorhexidine Dihydrochloride] here?
**A.** absence of any extra peaks
